# In US20040018150A1, “Prodrugs of phosphonate nucleotide analogues and methods for selecting and making same” (priority 2003, published 2004):
# Like-named read-outs stand apart in the source and are kept apart here.
# Tests used:
# [1] = Stability in human plasma; type: in vitro ADME
# Procedure: (§1) The in vitro metabolism and stability of separated diastereomers were determined in PLCE, MT-2 extract and human plasma. A biological sample listed below, 80 μL, was transferred into a screw-capped centrifuge tube and incubated at 37° C. for 5 min. A solution containing 0.2 mg/mL of the test compound in a suitable buffer, 20 μL, was added to the biological sample and mixed. The reaction mixture, 20 μL, was immediately sampled and mixed with 60 μL of methanol containing 0.015 mg/mL of 2-hydroxymethylnaphthalene as an internal standard for HPLC analysis. The sample was taken as the time-zero sample. Then, at specific time points, the reaction mixture, 20 μL, was sampled and mixed with 60 μL of methanol containing the internal standard. The mixture thus obtained was centrifuged at 15,000 G for 5 min and the supernatant was analyzed with HPLC under the conditions described below.
# (3) Human plasma (pooled normal human plasma from George King Biomedical Systems, Inc.)
# In the study for human plasma, the test compound was dissolved in TBS. TBS (tris-buffered saline, Sigma) contains 0.05 M Tris, 0.0027 M potassium chloride, and 0.138 M sodium chloride. pH 7.5 at 37° C.
# (§2) The HPLC analysis was carried out under the following conditions.
# [2] = Stability / hydrolysis in MT-2 cell extract; type: in vitro ADME
# Procedure: as §1
# (2) MT-2 cell extract was prepared from MT-2 cells according to the published procedure [A. Pompon, I. Lefebvre, J.-L. Imbach, S. Kahn, and D. Farquhar, “Antiviral Chemistry & Chemotherapy”, 5:91-98 (1994)] except for using HEPES buffer described below as the medium.
# In the study for MT-2 cell extracts, the test compound was dissolved in HEPES buffer. HEPES buffer contains 0.010 M HEPES, 0.05 M potassium chloride, 0.005 M magnesium chloride, and 0.005 M dl-dithiothreitol. pH 7.4 at 37° C.
# as §2
# [3] = tested on: PLCE (porcine liver carboxyesterase); experiment: in vitro; type: in vitro ADME; details: 37° C., PBS pH 7.4
# Procedure: as §1
# (§3) (1) PLCE (porcine liver carboxyesterase from Sigma, 160 u/mg protein, 21 mg protein/mL) diluted 20 fold with PBS (phosphated-buffered saline).
# (§4) In the study for PLCE, the test compound was dissolved in PBS. PBS (phosphate-buffered saline, Sigma) contains 0.01 M phosphate, 0.0027 M potassium chloride, and 0.137 M sodium chloride. pH 7.4 at 37° C.
# as §2
# [4] = tested on: porcine liver carboxyesterase (PLCE); experiment: in vitro; type: in vitro ADME; details: pig; 37° C., PBS pH 7.4; read-out: PLCE hydrolysis rate t1/2
# Procedure: as §1, §3, §4, §2
# [5] = Incubation of radiolabeled PMPA prodrugs or PMPA in human whole blood; metabolites in plasma, PBMCs and RBCs; type: in vitro ADME; details: human blood; for Total C-14 Recovered: 1 h incubation, 60 μg-eq; for Metabolites (% of Total Peak Area): GS 7340: 1 h
# Procedure: After 1 hour, plasma, red blood cells (RBCs) and peripheral blood mononuclear cells (PBMCs) were isolated and analyzed by HPLC with radiometric detection.
# [6] = Excretion and tissue distribution of radiolabelled prodrug in dogs; details: dogs; for % Dose / Conc.: oral 10 mg-eq. PMPA/kg
# Procedure: Plasma and peripheral blood mononuclear cells (PBMCs) were obtained over the 24-hr period. Urine and feces were cage collected over 24 hr. At 24 h after the dose, the animals were sacrificed and tissues removed for analysis. Total radioactivity in tissues was determined by oxidation and liquid scintillation counting.
# [7] = Cytotoxicity in MT-2 cells; details: human
# HIV-1 = experiment: microbe, parasite or virus in culture
compound,measurement,setting,value
"CC(C)OC(=O)[C@H](C)N[P@](=O)(CO[C@H](C)Cn1cnc2c(N)ncnc21)Oc1ccccc1 (single isomer, unassigned) [GS-7340]",Human Plasma Stability (HP) product,"[1]; 37° C., TBS pH 7.5",Met. Y
same,half-life at 0.04 mg/mL,"[1]; pH 7.5, human plasma, read-out: Stability T 1/2 Human Plasma",90 min
same,MT-2 extract hydrolysis product,"[2]; 37° C., HEPES buffer pH 7.4",Met. X & PMPA
same,half-life at 0.04 mg/mL,"[2]; human, pH 7.4, MT-2 cell extract, read-out: Stability T 1/2 MT-2 Cell Extract",28.3 min
same,PLCE hydrolysis product,[3],Met. X & PMPA
same,half-life at 0.04 mg/mL,[4],3.3 min
same,Total C-14 Recovered,[5]; PBMC,1.25 μg-eq
same,Metabolites (% of Total Peak Area): GS 7340,[5]; Plasma/FP,84%
same,Total C-14 Recovered,[5]; Plasma/FP,43.0 μg-eq
same,Metabolites (% of Total Peak Area): GS 7340,[5]; RBC/FP,57%
same,Total C-14 Recovered,[5]; RBC/FP,12.6 μg-eq
same,radioactivity in plasma due to intact GS-7340,[5]; plasma after 1 hour,84%
same,% Dose,"[6]; Abdominal fat, 24 h",0.00%
same,Conc.,"[6]; Abdominal fat, 24 h",0.90 ug-eq/g
same,% Dose,"[6]; Adrenal Gland, 24 h",0.00%
same,Conc.,"[6]; Adrenal Gland, 24 h",3.47 ug-eq/g
same,% Dose,"[6]; Axillary Lymph Nodes, 24 h",0.01%
same,Conc.,"[6]; Axillary Lymph Nodes, 24 h",5.54 ug-eq/g
same,% Dose,"[6]; Bile, 24 h",0.22%
same,Conc.,"[6]; Bile, 24 h",40.48 ug-eq/g
same,% Dose,"[6]; Bone Marrow, 24 h",0.00%
same,Conc.,"[6]; Bone Marrow, 24 h",2.05 ug-eq/g
same,% Dose,"[6]; Brain, 24 h",0.00%
same,Conc.,"[6]; Brain, 24 h",<LOD
same,% Dose,"[6]; Cerebrospinal Fluid, 24 h",0.00%
same,Conc.,"[6]; Cerebrospinal Fluid, 24 h",0.00 ug-eq/g
same,% Dose,"[6]; Duodenum, 24 h",0.44%
same,Conc.,"[6]; Duodenum, 24 h",8.77 ug-eq/g
same,% Dose,"[6]; Eye (L + R), 24 h",0.00%
same,Conc.,"[6]; Eye (L + R), 24 h",0.23 ug-eq/g
same,% Dose,"[6]; Feces, collected over 24 hr",0.19%
same,% Dose,"[6]; Femoral Bone, 24 h",0.00%
same,Conc.,"[6]; Femoral Bone, 24 h",0.28 ug-eq/g
same,% Dose,"[6]; Gall bladder, 24 h",0.04%
same,Conc.,"[6]; Gall bladder, 24 h",25.02 ug-eq/g
same,% Dose,"[6]; Heart, 24 h",0.15%
same,Conc.,"[6]; Heart, 24 h",1.97 ug-eq/g
same,% Dose,"[6]; Ileum, 24 h",0.16%
same,Conc.,"[6]; Ileum, 24 h",4.61 ug-eq/g
same,% Dose,"[6]; Iliac Lymph Nodes, 24 h",0.01%
same,Conc.,"[6]; Iliac Lymph Nodes, 24 h",5.42 ug-eq/g
same,% Dose,"[6]; Inguinal Lymph Nodes, 24 h",0.00%
same,Conc.,"[6]; Inguinal Lymph Nodes, 24 h",4.12 ug-eq/g
same,% Dose,"[6]; Jejunum, 24 h",0.79%
same,Conc.,"[6]; Jejunum, 24 h",4.16 ug-eq/g
same,% Dose,"[6]; Kidney, 24 h",3.78%
same,Conc.,"[6]; Kidney, 24 h",80.21 ug-eq/g
same,% Dose,"[6]; Large Intestine, 24 h",2.65%
same,Conc.,"[6]; Large Intestine, 24 h",47.20 ug-eq/g
same,% Dose,"[6]; Liver, 24 h",16.45%
same,Conc.,"[6]; Liver, 24 h",52.94 ug-eq/g
same,% Dose,"[6]; Lungs, 24 h",0.34%
same,Conc.,"[6]; Lungs, 24 h",4.33 ug-eq/g
same,% Dose,"[6]; Mesenteric Lymph Nodes, 24 h",0.04%
same,Conc.,"[6]; Mesenteric Lymph Nodes, 24 h",6.88 ug-eq/g
same,% Dose,[6]; PBMC,0.00%
same,Conc.,"[6]; PBMC, calculated using typical recovery of 15 × 10^6 cells total, mean PBMC volume 0.2 picoliters/cell",63.20 ug-eq/g
same,% Dose,"[6]; Pancreas, 24 h",0.01%
same,Conc.,"[6]; Pancreas, 24 h",3.51 ug-eq/g
same,% Dose,"[6]; Pituitary Gland, 24 h",0.00%
same,Conc.,"[6]; Pituitary Gland, 24 h",1.80 ug-eq/g
same,Conc.,[6]; Plasma at 0.25 h,3.48 ug-eq/g
same,% Dose,[6]; Plasma at 24 h,0.00%
same,Conc.,[6]; Plasma at 24 h,0.20 ug-eq/g
same,% Dose,"[6]; Prostate, 24 h",0.00%
same,Conc.,"[6]; Prostate, 24 h",2.14 ug-eq/g
same,% Dose,"[6]; Salivary Gland (L + R), 24 h",0.03%
same,Conc.,"[6]; Salivary Gland (L + R), 24 h",5.54 ug-eq/g
same,% Dose,"[6]; Skeletal Muscle, 24 h",0.01%
same,Conc.,"[6]; Skeletal Muscle, 24 h",1.12 ug-eq/g
same,% Dose,"[6]; Skin, 24 h",0.00%
same,Conc.,"[6]; Skin, 24 h",0.95 ug-eq/g
same,% Dose,"[6]; Spinal Cord, 24 h",0.00%
same,Conc.,"[6]; Spinal Cord, 24 h",0.04 ug-eq/g
same,% Dose,"[6]; Spleen, 24 h",0.17%
same,Conc.,"[6]; Spleen, 24 h",8.13 ug-eq/g
same,% Dose,"[6]; Stomach, 24 h",0.26%
same,Conc.,"[6]; Stomach, 24 h",2.68 ug-eq/g
same,% Dose,"[6]; Testes (L + R), 24 h",0.02%
same,Conc.,"[6]; Testes (L + R), 24 h",2.01 ug-eq/g
same,% Dose,"[6]; Thyroid Gland, 24 h",0.00%
same,Conc.,"[6]; Thyroid Gland, 24 h",4.78 ug-eq/g
same,% Dose,"[6]; Total GI Tract Contents, 24 h",21.64%
same,% Dose,"[6]; Total Recovery, 24 h",68.96%
same,% Dose,"[6]; Urine, collected over 24 hr",14.73%
same,% Dose,"[6]; Whole Blood, 24 h",0.16%
same,Conc.,"[6]; Whole Blood, 24 h",0.20 ug-eq/g
same,"increase of levels of PMPA in the lymphatic tissues, bone marrow, and skeletal muscle","[6]; 24 hours after single oral dose, versus TDF",10 fold
same,CC50,"[7]; CC50, cell culture",≥ 40000 nM
same,CC50,"[7]; Cytotoxicity CC50, MT-2 cells",> 40000 nM
same,IC50,"HIV-1; Human immunodeficiency virus 1, MT2",5 nM
same,IC50,"HIV-1; Human immunodeficiency virus 1, MT2, read-out: HIV IC50",5 nM
same,IC50,"HIV-1; Human immunodeficiency virus 1, MT2, read-out: HIV-1 Activity IC50",5 nM
